Each block holds one molecule with its values, some of them ahead of it. Calls of active or inactive are those of the source.
Assays:
[1] = target: T1, Apoptotic protease-activating factor 1 (Homo sapiens, UniProt O14727); experiment: SAR analysis of small molecule Activators of Apaf-1 in a Fluorescent assay.; type: functional; conditions: read-out: EC50_Mean;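 note: caspase-3 cleavage of fluorogenic Rh110 DEVD substrate downstream of apoptosome activation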
T1 sequence (O14727 whole entry): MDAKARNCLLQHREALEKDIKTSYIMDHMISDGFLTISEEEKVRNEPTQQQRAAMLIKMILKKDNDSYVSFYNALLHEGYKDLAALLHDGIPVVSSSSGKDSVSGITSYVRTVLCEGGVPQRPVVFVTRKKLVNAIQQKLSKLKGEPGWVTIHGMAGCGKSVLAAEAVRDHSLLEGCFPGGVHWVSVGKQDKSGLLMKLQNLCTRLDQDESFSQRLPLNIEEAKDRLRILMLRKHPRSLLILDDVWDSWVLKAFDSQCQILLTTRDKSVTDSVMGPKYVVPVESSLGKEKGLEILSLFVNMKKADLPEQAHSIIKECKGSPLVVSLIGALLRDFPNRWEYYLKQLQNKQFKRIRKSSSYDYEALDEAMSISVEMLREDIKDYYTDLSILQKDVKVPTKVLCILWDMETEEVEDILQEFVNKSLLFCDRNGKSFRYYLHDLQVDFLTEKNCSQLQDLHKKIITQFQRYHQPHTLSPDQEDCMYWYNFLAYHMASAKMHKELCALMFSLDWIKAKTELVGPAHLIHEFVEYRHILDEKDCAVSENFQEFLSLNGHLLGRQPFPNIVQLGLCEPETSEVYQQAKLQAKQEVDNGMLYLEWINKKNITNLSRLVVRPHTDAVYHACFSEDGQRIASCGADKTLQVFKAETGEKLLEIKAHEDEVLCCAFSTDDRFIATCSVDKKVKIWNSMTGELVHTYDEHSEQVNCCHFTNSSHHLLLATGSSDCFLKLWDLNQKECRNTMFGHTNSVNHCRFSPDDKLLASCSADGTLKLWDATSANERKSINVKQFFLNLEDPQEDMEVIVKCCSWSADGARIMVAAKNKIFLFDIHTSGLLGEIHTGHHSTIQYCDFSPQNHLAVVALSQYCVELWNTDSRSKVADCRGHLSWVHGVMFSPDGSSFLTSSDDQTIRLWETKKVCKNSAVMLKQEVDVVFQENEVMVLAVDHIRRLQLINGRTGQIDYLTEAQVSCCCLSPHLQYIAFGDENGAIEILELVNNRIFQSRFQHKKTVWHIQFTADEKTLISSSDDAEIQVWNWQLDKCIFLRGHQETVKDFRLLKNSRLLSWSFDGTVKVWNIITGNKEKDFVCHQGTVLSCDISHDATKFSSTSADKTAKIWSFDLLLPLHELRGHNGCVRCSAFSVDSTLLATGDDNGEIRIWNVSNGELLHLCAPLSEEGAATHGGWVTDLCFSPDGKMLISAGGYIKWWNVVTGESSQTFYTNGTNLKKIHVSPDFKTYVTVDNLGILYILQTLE

[2] = target: T2, Sentrin-specific protease 8 (Homo sapiens, UniProt Q96LD8); experiment: inhibition of sentrin protease 8 – biochemical, luminescence, set 2, SAR follow-up (AID 588601); type: functional
T2 sequence (Q96LD8 whole entry): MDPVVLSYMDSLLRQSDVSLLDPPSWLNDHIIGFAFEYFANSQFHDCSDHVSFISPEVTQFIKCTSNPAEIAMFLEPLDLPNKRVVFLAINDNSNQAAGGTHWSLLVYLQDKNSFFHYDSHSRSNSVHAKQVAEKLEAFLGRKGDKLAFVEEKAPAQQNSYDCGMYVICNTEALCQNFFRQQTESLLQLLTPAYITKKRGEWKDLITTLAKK

[3] = Trypanosoma cruzi growth suppression in host cells – NIH3T3 host cells, beta-gal luminescence, confirmation (AID 2044); type: functional, cell-based;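 note: intracellular parasites grown in NIH/3T3 mouse fibroblasts as host cells; luminescent beta-galactosidase reporter signal from transgenic T. cruzi replicating inside host cells; inhibitors lower the luminescence signal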
[4] = target: T3, Sentrin-specific protease 6 (Homo sapiens, UniProt Q9GZR1); experiment: inhibition of human SENP6 catalytic domain – biochemical, luminescence, set 2, SAR follow-up (AID 588598); type: functional
T3 sequence (Q9GZR1 whole entry): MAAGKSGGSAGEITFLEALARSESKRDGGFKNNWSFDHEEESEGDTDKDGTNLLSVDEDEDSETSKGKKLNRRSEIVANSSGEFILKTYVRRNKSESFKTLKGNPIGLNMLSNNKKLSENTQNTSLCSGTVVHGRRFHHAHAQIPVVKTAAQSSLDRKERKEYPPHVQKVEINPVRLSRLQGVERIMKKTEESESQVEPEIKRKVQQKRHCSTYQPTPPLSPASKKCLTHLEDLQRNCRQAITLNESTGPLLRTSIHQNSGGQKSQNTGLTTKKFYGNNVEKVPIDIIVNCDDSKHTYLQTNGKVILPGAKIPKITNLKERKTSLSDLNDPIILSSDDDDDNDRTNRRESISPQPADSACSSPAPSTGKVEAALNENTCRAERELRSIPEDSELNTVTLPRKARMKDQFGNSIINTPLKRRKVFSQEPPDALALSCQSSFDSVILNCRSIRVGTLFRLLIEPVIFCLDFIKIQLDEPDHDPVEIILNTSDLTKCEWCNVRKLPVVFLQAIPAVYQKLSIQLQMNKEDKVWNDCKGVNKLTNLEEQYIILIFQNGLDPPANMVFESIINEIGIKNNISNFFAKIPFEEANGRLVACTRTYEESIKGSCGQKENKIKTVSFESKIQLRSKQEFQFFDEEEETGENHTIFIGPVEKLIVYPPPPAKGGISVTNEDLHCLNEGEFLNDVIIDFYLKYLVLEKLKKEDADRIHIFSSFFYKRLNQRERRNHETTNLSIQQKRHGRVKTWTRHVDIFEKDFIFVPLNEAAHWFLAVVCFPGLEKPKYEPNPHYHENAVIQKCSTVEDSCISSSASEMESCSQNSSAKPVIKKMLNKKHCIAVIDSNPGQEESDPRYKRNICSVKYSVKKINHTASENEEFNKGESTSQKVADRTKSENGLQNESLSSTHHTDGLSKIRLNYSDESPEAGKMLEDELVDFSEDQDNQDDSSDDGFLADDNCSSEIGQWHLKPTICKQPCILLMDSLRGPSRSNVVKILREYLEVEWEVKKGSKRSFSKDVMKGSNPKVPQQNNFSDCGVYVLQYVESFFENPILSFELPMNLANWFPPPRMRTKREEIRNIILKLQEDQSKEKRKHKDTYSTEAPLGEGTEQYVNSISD

[5] = target: T4, Caspase-3 (Homo sapiens, UniProt P42574); experiment: SAR Analysis of small molecule inhibitors of Sentrin-specific proteases (SENPs) using a Caspase-3 Selectivity assay. [Related pubchem assays (depositor defined):AID2540, AID2599, AID434973, AID489001]; type: functional
T4 sequence (P42574 whole entry): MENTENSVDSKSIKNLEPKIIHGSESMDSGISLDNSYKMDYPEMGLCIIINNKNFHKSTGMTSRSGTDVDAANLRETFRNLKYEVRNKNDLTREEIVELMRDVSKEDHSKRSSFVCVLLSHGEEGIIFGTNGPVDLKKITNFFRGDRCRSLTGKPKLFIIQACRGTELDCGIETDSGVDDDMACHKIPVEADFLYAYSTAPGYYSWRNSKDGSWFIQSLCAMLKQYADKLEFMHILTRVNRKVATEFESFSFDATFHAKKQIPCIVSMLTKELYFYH

[6] = target: T5, Sentrin-specific protease 7 (Homo sapiens, UniProt Q9BQF6); experiment: inhibition of human SENP7 cleavage activity – biochemical, luminescence, SAR follow-up (AID 504497); type: functional
T5 sequence (Q9BQF6 whole entry): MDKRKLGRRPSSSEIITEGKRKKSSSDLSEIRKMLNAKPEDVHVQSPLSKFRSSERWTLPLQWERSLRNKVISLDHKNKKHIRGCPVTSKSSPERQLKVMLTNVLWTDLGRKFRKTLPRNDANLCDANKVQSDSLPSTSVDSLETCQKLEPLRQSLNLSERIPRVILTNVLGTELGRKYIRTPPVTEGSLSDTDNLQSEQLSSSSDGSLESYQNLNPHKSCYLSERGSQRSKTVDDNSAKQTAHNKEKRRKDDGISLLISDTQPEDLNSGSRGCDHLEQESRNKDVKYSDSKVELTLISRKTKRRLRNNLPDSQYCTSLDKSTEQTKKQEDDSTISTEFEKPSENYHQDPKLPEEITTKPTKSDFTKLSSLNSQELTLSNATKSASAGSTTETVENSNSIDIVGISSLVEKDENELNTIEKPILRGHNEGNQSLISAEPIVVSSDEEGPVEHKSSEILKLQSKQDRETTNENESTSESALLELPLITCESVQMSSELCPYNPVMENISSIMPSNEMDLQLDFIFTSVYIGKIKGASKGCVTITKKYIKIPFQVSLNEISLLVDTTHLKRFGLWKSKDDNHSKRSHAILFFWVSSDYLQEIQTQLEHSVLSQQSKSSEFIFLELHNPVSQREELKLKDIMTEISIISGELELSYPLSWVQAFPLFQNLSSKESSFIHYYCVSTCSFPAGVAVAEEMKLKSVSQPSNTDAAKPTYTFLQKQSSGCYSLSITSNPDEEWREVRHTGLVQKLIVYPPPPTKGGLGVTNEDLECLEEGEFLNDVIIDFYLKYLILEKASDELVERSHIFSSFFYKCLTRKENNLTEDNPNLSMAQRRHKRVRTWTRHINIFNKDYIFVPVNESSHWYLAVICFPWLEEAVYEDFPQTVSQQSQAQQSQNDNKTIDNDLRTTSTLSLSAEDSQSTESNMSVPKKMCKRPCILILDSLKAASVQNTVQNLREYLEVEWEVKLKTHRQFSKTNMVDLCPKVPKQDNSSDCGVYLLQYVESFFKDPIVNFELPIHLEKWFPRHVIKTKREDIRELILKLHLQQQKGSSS

[7] = target: T2, Sentrin-specific protease 8; experiment: inhibition of human SENP8 cleavage activity – biochemical, luminescence, SAR follow-up (AID 504501); type: functional
[8] = NIH3T3 cell viability loss – ATP luminescence, mouse fibroblasts, counter-screen, dose response (AID 2010); type: functional, cell-based;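 note: cells exposed to compound for about 90 hours before reading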
[9] = target: T3, Sentrin-specific protease 6; experiment: SAR Analysis of small molecule inhibitors of Sentrin-specific protease 6 (SENP6) using a Luminescent assay. [Related pubchem assays (depositor defined):AID2582, AID2599]; type: functional
[10] = target: T5, Sentrin-specific protease 7; experiment: inhibition of human SENP7 cleavage activity – biochemical, luminescence, set 2, SAR follow-up (AID 588600); type: functional
[11] = target: T4, Caspase-3; experiment: inhibition of recombinant caspase-3 activity – biochemical, luminescence, set 2, selectivity assay for SENP protease inhibitor project, SAR follow-up (AID 588599); type: functional
[12] = target: Aurora kinase B (Homo sapiens, UniProt Q96GD4); type: functional
Chain of Aurora kinase B (Q96GD4 whole entry): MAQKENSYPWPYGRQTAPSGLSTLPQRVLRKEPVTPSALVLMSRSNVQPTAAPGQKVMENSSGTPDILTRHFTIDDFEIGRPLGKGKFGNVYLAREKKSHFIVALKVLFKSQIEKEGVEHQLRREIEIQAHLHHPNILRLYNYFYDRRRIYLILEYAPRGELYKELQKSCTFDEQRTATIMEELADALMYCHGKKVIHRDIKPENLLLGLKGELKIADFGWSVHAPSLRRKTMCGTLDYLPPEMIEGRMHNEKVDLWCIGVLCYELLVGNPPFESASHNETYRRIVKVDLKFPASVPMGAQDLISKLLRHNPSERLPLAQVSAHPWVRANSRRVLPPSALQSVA

[13] = target: Aurora kinase A (Homo sapiens, UniProt O14965); type: functional;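 note: value from the Navigating the Kinome kinase panel profiling, panel entry STK6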
Chain of Aurora kinase A (O14965 whole entry): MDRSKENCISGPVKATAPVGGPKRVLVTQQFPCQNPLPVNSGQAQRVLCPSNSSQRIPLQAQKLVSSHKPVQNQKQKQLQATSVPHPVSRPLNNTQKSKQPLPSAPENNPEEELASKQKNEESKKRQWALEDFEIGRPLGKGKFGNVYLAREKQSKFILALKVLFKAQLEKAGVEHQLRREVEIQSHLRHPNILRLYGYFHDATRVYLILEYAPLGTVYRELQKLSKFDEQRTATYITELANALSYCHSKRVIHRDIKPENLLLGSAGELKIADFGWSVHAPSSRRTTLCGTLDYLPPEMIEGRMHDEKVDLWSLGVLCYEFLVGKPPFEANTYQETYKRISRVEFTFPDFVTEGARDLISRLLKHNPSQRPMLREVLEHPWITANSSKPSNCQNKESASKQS

[14] = system: P388; experiment: cells; type: functional; conditions: Mus musculus
[15] = system: P388/ADR; experiment: cells; type: functional; conditions: Mus musculus
[16] = system: SN12K1; experiment: cells; type: functional; conditions: Homo sapiens

- EC50 [1]: > 100 µM (inactive)
Compound: CC(C)(C)c1ccc(C(=O)NC(CCc2ccccc2)CC(=O)O)cc1 (configuration not stated)

Compound: O=C(Nc1nc2ccc(Cl)cc2s1)C1CC1
- IC50 [2]: 5.97 µM (active)
- EC50 [3]: 0.119 µM (active)
- IC50 [4]: 24.6 µM (active)
- IC50 [5]: 25 µM (active)
- IC50 [6]: 5.9 µM (active)
- IC50 [7]: > 99 µM (inactive)
- EC50 [8]: > 16 µM (not active)
- IC50 [9]: > 99 µM (inactive)
- IC50 [10]: 7.46 µM (active)
- IC50 [11]: 28.9 µM (active)

- Ki [12]: 0.00316 µM (active)
- Ki [13]: 0.00398 µM (active)
Compound: COCCOC1CCC(n2nc(-c3ccc(Nc4nc5cc(Br)cc(C)c5o4)cc3)c3c(N)ncnc32)CC1 (configuration not stated)

- IC50 [4]: > 99 µM (inactive)
- IC50 [10]: > 99 µM (inactive)
- IC50 [11]: > 99 µM (inactive)
Compound: Cc1ccc(N2CC(NC(=O)C(=O)c3c(C)[nH]c4ccccc34)CC2=O)cc1 (configuration not stated)
- IC50 [2]: > 99 µM (inactive)

Compound: COC(=O)C[C@](O)(CCC(C)(C)O)C(=O)O[C@@H]1C(OC)=C[C@]23CCCN2CCc2cc4c(cc2[C@H]13)OCO4 [HARRINGTONINE]
- GI50 [14]: 0.0252 µM (active)
- GI50 [15]: 0.738 µM (active)
- GI50 [16]: 0.0661 µM (active)

- GI50 [14]: > 100 µM (inactive)
- GI50 [15]: > 100 µM (inactive)
Compound: COC1OCC(O)C(NC(=O)N(C)N=O)C1O (configuration not stated)
- GI50 [16]: > 100 µM (inactive)

- IC50 [5]: 0.541 µM (active)
- IC50 [6]: 0.854 µM (active)
- IC50 [9]: 0.742 µM (active)
Compound: CCCCc1ccc2nc(NC(=O)c3sccc3C)sc2c1
- IC50 [7]: 0.672 µM (active)

From ChEMBL document CHEMBL1201862, “PubChem BioAssay data set” (2004)
